Laboratory results published in ChEMBL document CHEMBL1132558, “A new single-photon emission computed tomography imaging agent for serotonin transporters: [123I]IDAM, 5-iodo-2-((2-((dimethylamino)methyl)phenyl)thio)benzyl alcohol” (J Med Chem, 1999).

Columns and labels:
Rattus norvegicus [1] = species: Rattus norvegicus; experiment: Concentration inhibiting serotonin uptake in rat brain synaptosomes.; type: functional
Rattus norvegicus [2] = species: Rattus norvegicus; experiment: Concentration inhibiting norepinephrine uptake in rat brain synaptosomes.; type: functional
[3] = target: T1, Sodium-dependent dopamine transporter (Homo sapiens, UniProt Q01959); experiment: In vitro binding affinity against Dopamine transporter in LLC-PK1 cell membranes.; type: cell-based, Sus scrofa
[4] = target: Sodium-dependent serotonin transporter (Homo sapiens, UniProt P31645); experiment: In vitro binding affinity against Serotonin transporter (SERT) from LLC-PK1 cell membranes.; type: cell-based, Sus scrofa
[5] = target: T1, Sodium-dependent dopamine transporter; experiment: Concentration inhibiting Dopamine transporter
Rattus norvegicus [6] = species: Rattus norvegicus; experiment: Concentration inhibiting 5-HT reuptake in rat brain synaptosomes.; type: functional

T1 sequence (Q01959 whole entry): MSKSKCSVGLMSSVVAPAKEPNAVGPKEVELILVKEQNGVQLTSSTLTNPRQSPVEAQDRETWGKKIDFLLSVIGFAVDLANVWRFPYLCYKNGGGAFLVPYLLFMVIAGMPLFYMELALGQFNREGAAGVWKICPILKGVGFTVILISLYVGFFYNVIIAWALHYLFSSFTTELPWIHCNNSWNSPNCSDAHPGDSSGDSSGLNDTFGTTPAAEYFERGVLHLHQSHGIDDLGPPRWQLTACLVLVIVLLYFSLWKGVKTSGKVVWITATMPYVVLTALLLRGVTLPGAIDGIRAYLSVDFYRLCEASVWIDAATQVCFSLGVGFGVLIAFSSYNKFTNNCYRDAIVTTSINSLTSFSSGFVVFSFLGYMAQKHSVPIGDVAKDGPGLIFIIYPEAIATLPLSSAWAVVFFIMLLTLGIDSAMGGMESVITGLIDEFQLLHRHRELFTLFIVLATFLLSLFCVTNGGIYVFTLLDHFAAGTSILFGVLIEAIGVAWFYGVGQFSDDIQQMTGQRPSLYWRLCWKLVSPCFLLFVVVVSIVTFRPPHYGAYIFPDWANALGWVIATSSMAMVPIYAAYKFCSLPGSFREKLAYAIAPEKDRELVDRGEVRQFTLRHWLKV
Chain of Sodium-dependent serotonin transporter (P31645 whole entry): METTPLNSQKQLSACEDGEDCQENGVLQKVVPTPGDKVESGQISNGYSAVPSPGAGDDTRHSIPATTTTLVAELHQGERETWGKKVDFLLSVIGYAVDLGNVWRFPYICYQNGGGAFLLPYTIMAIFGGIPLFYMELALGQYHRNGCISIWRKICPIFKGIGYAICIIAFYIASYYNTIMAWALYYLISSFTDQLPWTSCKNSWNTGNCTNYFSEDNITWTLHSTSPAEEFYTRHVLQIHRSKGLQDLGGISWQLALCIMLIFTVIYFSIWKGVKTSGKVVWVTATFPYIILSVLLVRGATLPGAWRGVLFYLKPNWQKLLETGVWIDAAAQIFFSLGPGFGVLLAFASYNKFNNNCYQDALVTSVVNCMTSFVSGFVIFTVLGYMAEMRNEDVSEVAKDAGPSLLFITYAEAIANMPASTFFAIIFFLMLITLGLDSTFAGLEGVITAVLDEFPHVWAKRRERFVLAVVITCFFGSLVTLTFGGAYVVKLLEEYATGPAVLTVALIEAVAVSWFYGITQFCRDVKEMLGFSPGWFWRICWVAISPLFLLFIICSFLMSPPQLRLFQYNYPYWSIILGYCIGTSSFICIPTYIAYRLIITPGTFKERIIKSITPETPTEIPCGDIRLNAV

Compound | Ki (Rattus norvegicus [1]) [nM] | Ki (Rattus norvegicus [2]) [nM] | Ki [3] [nM] | Ki [4] [nM] | Ki [5] [nM] | Ki (Rattus norvegicus [6]) [nM]
CN(C)Cc1ccccc1Sc1ccc(Cl)cc1CO | 2.1 | 55 |  |  |  | 
CN(C)Cc1ccccc1Sc1ccc(I)cc1CO |  |  | > 10000 | 0.097 |  | 
CN(C)Cc1ccccc1Sc1ccc(Br)cc1CO |  |  | > 10000 | 0.52 |  | 
CSc1ccc([C@H]2CN3CCC[C@H]3c3ccccc32)cc1 |  |  | 112 |  | 23.5 | 0.4
